Results from US10294202B2, “Pyrrolidinones as herbicides” (FMC Corporation, priority 2013, dated 2019).
Where two headings read alike, the source gives them in different places.

Columns and labels:
[1] = test system: pigweed; assay: Test C pre-/postemergence herbicide test; type: in vivo, Amaranthus retroflexus; conditions: for Pigweed plant response rating: scale 0 to 100, 0 is no effect and 100 is complete control
How it was run: (§1)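 Compound solutions contained surfactant in a non-phytotoxic solvent. These were sprayed onto pots of loam/sand sown with seeds, and onto young plants (2 to 18 cm, 1- to 4-leaf) in sphagnum peat–vermiculite mix. Visual injury scores (0 none, 100 complete control) were recorded after 13 to 15 days.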

[2] = test system: crabgrass, large; assay: Test C pre-/postemergence herbicide test; type: in vivo, Digitaria sanguinalis; conditions: for Crabgrass, Large plant response rating: scale 0 to 100, 0 is no effect and 100 is complete control
How it was run: as §1

[3] = test system: ryegrass, Italian; assay: Test C pre-/postemergence herbicide test; type: in vivo, Lolium multiflorum; conditions: for Ryegrass, Italian plant response rating: scale 0 to 100, 0 is no effect and 100 is complete control
How it was run: as §1

[4] = test system: johnsongrass; assay: Test C pre-/postemergence herbicide test; type: in vivo, Sorghum halepense; conditions: for Johnsongrass plant response rating: scale 0 to 100, 0 is no effect and 100 is complete control
How it was run: as §1

[5] = test system: lambsquarters; assay: Test C pre-/postemergence herbicide test; type: in vivo, Chenopodium album; conditions: for Lambsquarters plant response rating: scale 0 to 100, 0 is no effect and 100 is complete control
How it was run: as §1

[6] = test system: giant foxtail; assay: Test A pre-/postemergence herbicide test; type: in vivo, Setaria faberii; conditions: for Foxtail, Giant plant response rating: Preemergence, visual rating on 0 to 100 scale (0 no effect, 100 complete control)
How it was run: (§2)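 Formulated compound (non-phytotoxic solvent, surfactant) sprayed pre- onto soil of seeded loam/sand pots or post- onto seedlings at 1–2 leaves; ~10 d greenhouse; 0–100 visual control rating versus untreated.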

[7] = test system: nutsedge, yellow; assay: Test C pre-/postemergence herbicide test; type: in vivo, Cyperus esculentus; conditions: for Nutsedge, Yellow plant response rating: scale 0 to 100, 0 is no effect and 100 is complete control
How it was run: as §1

[8] = test system: corn; assay: Test C pre-/postemergence herbicide test; type: in vivo, Zea mays; conditions: for Corn plant response rating: scale 0 to 100, 0 is no effect and 100 is complete control
How it was run: as §1

[9] = test system: barnyardgrass; assay: Test A pre-/postemergence herbicide test; type: in vivo, Echinochloa crus-galli; conditions: for Barnyardgrass plant response rating: Preemergence, visual rating on 0 to 100 scale (0 no effect, 100 complete control)
How it was run: as §2

[10] = test system: soybean; assay: Test C pre-/postemergence herbicide test; type: in vivo, Glycine max; conditions: for Soybean plant response rating: scale 0 to 100, 0 is no effect and 100 is complete control
How it was run: as §1

[11] = test system: ducksalad; assay: Test B flooded paddy test; type: in vivo, Heteranthera limosa; conditions: 250 g ai/ha, Flood; scale of 0 to 100 where 0 is no effect and 100 is complete control
How it was run: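 Plants were grown to the 2-leaf stage, then pots were flooded to 3 cm above the soil and compound was applied directly into the paddy water, with that depth held throughout. After 13 to 15 days in a greenhouse, injury was rated visually against untreated controls on a 0 to 100 scale (100 = complete control).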

[12] = Preemergence, 62 g ai/ha, scale 0 to 100
[13] = Preemergence, 125 g ai/ha, scale 0 to 100 (0 no effect, 100 complete control)
[14] = Postemergence, 125 g ai/ha, 0 to 100 scale, 0 no effect, 100 complete control
[15] = Postemergence, 500 g ai/ha, 0 to 100 scale (0 no effect, 100 complete control)
[16] = Postemergence, 31 g ai/ha, scale 0 (no effect) to 100 (complete control)
[17] = Postemergence, 62 g ai/ha, scale 0 to 100 (0 no effect, 100 complete control)
[18] = Postemergence, 125 g ai/ha, scale 0 to 100 (0 no effect, 100 complete control)
[19] = Postemergence, 250 g ai/ha, scale 0 to 100 (0 no effect, 100 complete control)

O=C1NCC(c2cccc(OC(F)(F)F)c2)C1C(=O)Nc1ccccc1F (centres unmarked) [Compound 69]
70: Plant response rating, Barnyardgrass [9, 14]
65: Plant response rating, Lambsquarters [5, 13]
90: Crabgrass, Large plant response rating ([2]; Preemergence, 31 g ai/ha) | Plant response rating, Crabgrass, Large [2, 12] | Foxtail, Giant plant response rating ([6]; 125 g ai/ha) | Plant response rating, Foxtail, Giant ([6]; preemergence, 500 g ai/ha, 0 to 100 scale) | Plant response rating, Barnyardgrass ([9]; preemergence, 500 g ai/ha, 0 to 100 scale (0 no effect, 100 complete control))
35: Lambsquarters plant response rating ([5]; Preemergence, 31 g ai/ha) | Plant response rating, Lambsquarters [5, 12]
0: Ryegrass, Italian plant response rating ([3]; Preemergence, 31 g ai/ha) | Plant response rating, Ryegrass, Italian [3, 12] | Plant response rating, Ryegrass, Italian [3, 13] | Johnsongrass plant response rating ([4]; Preemergence, 31 g ai/ha) | Plant response rating, Johnsongrass [4, 12] | Plant response rating, Johnsongrass [4, 13] | Plant response rating (scale of 0 to 100), Johnsongrass ([4]; Preemergence, 250 g ai/ha) | Nutsedge, Yellow plant response rating ([7]; Preemergence, 31 g ai/ha) | Plant response rating, Nutsedge, Yellow [7, 13] | Soybean plant response rating ([10]; Preemergence, 31 g ai/ha) | Plant response rating, Soybean [10, 12] | Plant response rating, Soybean [10, 13] | Plant response rating (scale of 0 to 100), Soybean ([10]; Preemergence, 250 g ai/ha)
80: Plant response rating, Foxtail, Giant [6, 14] | Plant response rating, Foxtail, Giant [6, 15] | Plant response rating, Barnyardgrass [9, 15] | Barnyardgrass plant response rating ([9]; 125 g ai/ha)
10: Plant response rating (scale of 0 to 100), Ryegrass, Italian ([3]; Preemergence, 250 g ai/ha) | Plant response rating (scale of 0 to 100), Nutsedge, Yellow ([7]; Preemergence, 250 g ai/ha)
30: Plant response rating (scale of 0 to 100), Corn ([8]; Preemergence, 250 g ai/ha)
25: Plant response rating, Pigweed [1, 12] | Plant response rating, Pigweed [1, 13] | Plant response rating (scale of 0 to 100), Pigweed ([1]; Preemergence, 250 g ai/ha) | Plant response rating, Corn [8, 13]
95: Plant response rating, Crabgrass, Large [2, 13] | Plant response rating (scale of 0 to 100), Crabgrass, Large ([2]; Preemergence, 250 g ai/ha)
85: Plant response rating (scale of 0 to 100), Lambsquarters ([5]; Preemergence, 250 g ai/ha) | Plant response rating, Ducksalad [11]
15: Pigweed plant response rating ([1]; Preemergence, 31 g ai/ha) | Corn plant response rating ([8]; Preemergence, 31 g ai/ha) | Plant response rating, Corn [8, 12]

O=C1NCC(c2ccc(C(F)(F)F)cc2)C1C(=O)Nc1ccccc1F (centres unmarked) [Compound 79, N-(2-fluorophenyl)-2-oxo-4-[4-(trifluoromethyl)phenyl]-3-pyrrolidinecarboxamide]
10: Pigweed plant response rating ([1]; Preemergence, 31 g ai/ha) | Plant response rating, Johnsongrass [4, 13] | Plant response rating (scale of 0 to 100), Johnsongrass ([4]; Preemergence, 250 g ai/ha) | Plant response rating, Corn [8, 13] | Plant response rating, Soybean [10, 18] | Plant response rating, Soybean [10, 19]
0: Plant response rating, Ryegrass, Italian [3, 16] | Plant response rating, Ryegrass, Italian [3, 17] | Plant response rating, Ryegrass, Italian [3, 18] | Plant response rating, Ryegrass, Italian [3, 19] | Ryegrass, Italian plant response rating ([3]; Preemergence, 31 g ai/ha) | Plant response rating, Johnsongrass [4, 16] | Plant response rating, Johnsongrass [4, 17] | Plant response rating, Johnsongrass [4, 18] | Johnsongrass plant response rating ([4]; Preemergence, 31 g ai/ha) | Plant response rating, Johnsongrass [4, 12] | Plant response rating, Nutsedge, Yellow [7, 16] | Plant response rating, Nutsedge, Yellow [7, 17] | Plant response rating, Nutsedge, Yellow [7, 18] | Plant response rating, Nutsedge, Yellow [7, 19] | Nutsedge, Yellow plant response rating ([7]; Preemergence, 31 g ai/ha) | Plant response rating, Nutsedge, Yellow [7, 12] | Plant response rating, Nutsedge, Yellow [7, 13] | Plant response rating (scale of 0 to 100), Nutsedge, Yellow ([7]; Preemergence, 250 g ai/ha) | Plant response rating, Corn [8, 16] | Plant response rating, Corn [8, 17] | Plant response rating, Corn [8, 18] | Plant response rating, Corn [8, 19] | Corn plant response rating ([8]; Preemergence, 31 g ai/ha) | Plant response rating, Corn [8, 12] | Plant response rating, Soybean [10, 16] | Plant response rating, Soybean [10, 17] | Soybean plant response rating ([10]; Preemergence, 31 g ai/ha) | Plant response rating, Soybean [10, 12] | Plant response rating, Soybean [10, 13] | Plant response rating (scale of 0 to 100), Soybean ([10]; Preemergence, 250 g ai/ha)
50: Plant response rating, Pigweed [1, 13] | Plant response rating, Lambsquarters [5, 17]
80: Barnyardgrass plant response rating ([9]; 125 g ai/ha)
85: Plant response rating, Lambsquarters [5, 18] | Plant response rating, Lambsquarters [5, 19]
100: Plant response rating, Crabgrass, Large [2, 13] | Plant response rating (scale of 0 to 100), Crabgrass, Large ([2]; Preemergence, 250 g ai/ha)
90%: pest or weed control at 500 g/ha ([6]; Setaria faberi, pre-emergence, 240 h, preemergence, 500 g ai/ha, 0 to 100 scale, read-out: Plant response rating, Foxtail, Giant) | pest or weed control at 500 g/ha ([9]; Echinochloa crus-galli, post-emergence, 240 h, Postemergence, 500 g ai/ha, 0 to 100 scale (0 no effect, 100 complete control), read-out: Plant response rating, Barnyardgrass) | pest or weed control at 500 g/ha ([9]; Echinochloa crus-galli, pre-emergence, 240 h, preemergence, 500 g ai/ha, 0 to 100 scale (0 no effect, 100 complete control), read-out: Plant response rating, Barnyardgrass)
35: Plant response rating, Pigweed [1, 16] | Plant response rating, Pigweed [1, 17] | Plant response rating, Pigweed [1, 18] | Plant response rating, Pigweed [1, 19]
80%: pest or weed control at 125 g/ha ([6]; Setaria faberi, post-emergence, 240 h, Postemergence, 125 g ai/ha, 0 to 100 scale, 0 no effect, 100 complete control, read-out: Plant response rating, Foxtail, Giant) | pest or weed control at 500 g/ha ([6]; Setaria faberi, post-emergence, 240 h, Postemergence, 500 g ai/ha, 0 to 100 scale (0 no effect, 100 complete control), read-out: Plant response rating, Foxtail, Giant) | pest or weed control at 125 g/ha ([9]; Echinochloa crus-galli, post-emergence, 240 h, Postemergence, 125 g ai/ha, 0 to 100 scale, 0 no effect, 100 complete control, read-out: Plant response rating, Barnyardgrass)
95: Crabgrass, Large plant response rating ([2]; Preemergence, 31 g ai/ha)
40: Plant response rating, Pigweed [1, 12]
30: Plant response rating, Ryegrass, Italian [3, 13] | Plant response rating (scale of 0 to 100), Ryegrass, Italian ([3]; Preemergence, 250 g ai/ha) | Plant response rating (scale of 0 to 100), Corn ([8]; Preemergence, 250 g ai/ha)
90: Lambsquarters plant response rating ([5]; Preemergence, 31 g ai/ha) | Plant response rating, Lambsquarters [5, 12] | Plant response rating, Lambsquarters [5, 13] | Plant response rating (scale of 0 to 100), Lambsquarters ([5]; Preemergence, 250 g ai/ha) | Foxtail, Giant plant response rating ([6]; 125 g ai/ha) | Plant response rating, Ducksalad [11]
75: Plant response rating, Crabgrass, Large [2, 19]
25: Plant response rating, Lambsquarters [5, 16]
65: Plant response rating (scale of 0 to 100), Pigweed ([1]; Preemergence, 250 g ai/ha) | Plant response rating, Crabgrass, Large [2, 18]
5: Plant response rating, Crabgrass, Large [2, 16] | Plant response rating, Crabgrass, Large [2, 17] | Plant response rating, Ryegrass, Italian [3, 12] | Plant response rating, Johnsongrass [4, 19]
98: Plant response rating, Crabgrass, Large [2, 12]
